Assays:
[1] = system: bacterial growth; assay: Growth lag-time in liquid media; type: cell-based; settings: 1 mM 3HAA, 15 uM DFO, alone or combined
Description: By contrast, 1 mM 3HAA alone increased lag-time by 6% individually. 15 uM DFO alone increased lag-time by 4% individually. Combination of 1 mM 3HAA with 15 uM DFO provided multiple fold impact on growth inhibition that is statistically significant to either single treatment alone.

[2] = system: E. coli; assay: Colony size of E. coli on plates; type: cell-based; settings: for effect on colony size (E. coli): 1 mM 3HAA or 8 mM FAC alone
Description: To test the effects of 3HAA, DFO and FAC on colony size, colony size was measured for E. coli in plates containing 1 mM 3HAA, 15 uM DFO, and 8 mM FAC alone and in combination.

[3] = system: C. elegans; type: in vivo; settings: added to culture medium of haao-1 knockout worms (elevated endogenous 3HAA)
Description: Using the haao-1 knockout strain exposes the animals, but not their bacterial food source, to 3HAA.

[4] = system: E. coli; type: cell-based; settings: different dosages; liquid media OD 600 nm and CFUs on solid media; single compound
Description: (§1) 3HAA was tested for its ability to negatively impact bacterial growth. 3HAA was tested at different dosages for inhibition of E. coli and P. aeruginosa growth in liquid media (measured by optical density at 600 nm) and colony forming units (CFUs) on solid media.
(§2) Deferoxamine (DFO) was also tested for its ability to impact bacterial growth. Deferoxamine was tested at different dosages for inhibition of E. coli and P. aeruginosa growth in liquid media (measured by optical density at 600 nm) and CFUs on solid media.

[5] = system: P. aeruginosa; assay: Inhibition of P. aeruginosa growth in liquid media (OD 600 nm) and CFUs on solid media; type: cell-based; settings: different dosages, single compound
Description: as §1, §2

[6] = system: E. coli; assay: Colony formation (CFUs) of E. coli on culture plate; type: cell-based
[7] = system: E. coli infection; assay: Infection of C. elegans challenged with fluorescently labeled E. coli; type: in vivo; settings: fluorescence microscopy over 7 days
Description: Infection was monitored using fluorescence microscopy over 7 days. Heatmap of infection progression of individual animals over days—purple 32 not infected, red=high infection.

[8] = system: P. aeruginosa; assay: Colony formation (CFUs) of P. aeruginosa on culture plate; type: cell-based; settings: 1 mM 3HAA and 15 uM DFO alone or in combination
Description: To test the effects of 3HAA and DFO on colony formation of P. aeruginosa, 1 mM 3HAA and 15 uM DFO alone or in combination were added to culture plate containing P. aeruginosa.

[9] = system: E. coli; assay: Pre-treatment of E. coli in liquid media, then colony count on DFO+3HAA plates; type: cell-based; settings: pretreatment 1 mM 3HAA or 15 uM DFO, 16 hr at 37 degrees
Description: E. coli inoculates were grown in liquid media containing either control (no additives), 1 mM 3HAA or 15 uM DFO for 16 hr at 37 degrees with shaking. The cultures were spotted to either Control plates (no additives) or plate containing DFO+3HAA and left to dry at room temperature. After incubated at 37 degrees for 16 hours, colonies were counted.

[10] = 1 mM 3HAA and 8 mM FAC alone or in combination

Molecule	increase in growth lag-time [1]	decrease of colony size / colony area (E. coli) ([2]; 1 mM 3HAA, 15 uM DFO, 8 mM FAC, alone or in combination)	toxicity to C. elegans relative to wild type animals [3]	impact on growth of E. coli [4]	impact on growth of P. aeruginosa [5]	impact on colony formation (E. coli) [6, 10]	effect on colony size (E. coli) [2]	protection from E. coli infection ([7]; haao-1 knockout worms (high endogenous 3HAA))	protection from E. coli infection ([7]; wild type worms)	impact on colony formation (E. coli) ([6]; 1 mM 3HAA or 15 uM DFO alone)	impact on colony formation (P. aeruginosa) [8]	sensitization of bacteria to the 3HAA and DFO combination by pretreatment [9]
CC(=O)N(O)CCCCCNC(=O)CCC(=O)N(O)CCCCCNC(=O)CCC(=O)N(O)CCCCCN [DFO, deferoxamine, reference compound]	4%	~8%	neither the combination of DFO and elevated 3HAA (haao-1) nor the combination of FAC with elevated 3HAA (haao-1) were toxic	–	–	–	–	–	–	–	–	–
ferric ammonium citrate [FAC]	–	–	–	very little impact	very little impact	no significant impact was observed	increased colony size	This protection was enhanced	protected from infection	–	–	–
Nc1c(O)cccc1C(=O)O [3HAA, 3-hydroxyanthanilic acid]	6%	–	–	negatively affects growth of both E. coli and P. aeruginosa, but only at high doses	negatively affects growth of both E. coli and P. aeruginosa, but only at high doses	no significant impact was observed	increased colony size	–	–	Neither 1 mM 3HAA nor 15 uM DFO alone showed significant impact	neither affected colony formation alone	sensitizes bacteria to the combination of 3HAA and DFO

— patent US20250127740A1, “COMPOSITION CONTAINING 3-HYDROXYANTHRANILIC ACID AND COMPOUNDS THAT ALTER IRON HOMEOSTASIS AND METHOD OF ITS USE” (priority 2021, published 2025)
